Assay results published in article PMC8119466, “A screen of FDA-approved drugs identifies inhibitors of protein tyrosine phosphatase 4A3 (PTP4A3 or PRL-3)” (Scientific Reports, 2021).
Structures can show the parent of a compound that is named as a salt. Where two headings read alike, the source gives them in different places.

Legend:
Format in all cases: biochemical
recombinant PRL-3 = biological target: T1, recombinant PRL-3 (Homo sapiens, UniProt O75365); experiment: In vitro phosphatase assay (DiFMUP hydrolysis), PRL-3; note: test concentration or dose not given here
T1 construct: 6xHis (N, cleaved yes); made in house; host or cells: E. coli One Shot BL21 Star

recombinant PRL-2 = biological target: T2, recombinant PRL-2 (Homo sapiens, UniProt Q12974); experiment: In vitro phosphatase assay (DiFMUP hydrolysis), PRL-2;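 note: PRL-2 activity read as DiFMUP hydrolysis after 20 min at room temperature with drug, enzyme first pre-reduced at 4 °C for 20 min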
T2 construct: 6xHis (N, cleaved yes); made in house; host or cells: E. coli One Shot BL21 Star
T2 sequence (Q12974 1-167): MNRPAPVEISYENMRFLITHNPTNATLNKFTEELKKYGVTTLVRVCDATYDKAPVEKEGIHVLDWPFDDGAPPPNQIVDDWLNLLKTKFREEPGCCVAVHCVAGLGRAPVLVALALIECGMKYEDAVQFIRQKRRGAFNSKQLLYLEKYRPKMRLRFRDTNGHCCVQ

recombinant PRL-1 = biological target: T3, recombinant PRL-1 (Homo sapiens, UniProt Q93096); experiment: In vitro phosphatase assay (DiFMUP hydrolysis), PRL-1; note: test concentration or dose not given here
T3 construct: 6xHis (N, cleaved yes); made in house; host or cells: E. coli One Shot BL21 Star
T3 sequence (Q93096 1-173): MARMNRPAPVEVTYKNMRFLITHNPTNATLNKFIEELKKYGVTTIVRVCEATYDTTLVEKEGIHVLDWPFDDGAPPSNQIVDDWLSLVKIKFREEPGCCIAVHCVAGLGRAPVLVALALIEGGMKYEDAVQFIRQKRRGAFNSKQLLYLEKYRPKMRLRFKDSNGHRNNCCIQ

[1] = FDA-approved drug screen, activity compared to DMSO

T1 sequence (O75365 whole entry): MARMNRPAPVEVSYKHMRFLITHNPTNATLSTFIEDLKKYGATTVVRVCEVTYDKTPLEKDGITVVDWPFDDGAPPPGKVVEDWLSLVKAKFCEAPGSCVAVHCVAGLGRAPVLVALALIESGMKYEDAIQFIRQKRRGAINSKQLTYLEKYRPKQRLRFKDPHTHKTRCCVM

| Structure (SMILES) | % Phosphatase Activity (compared to DMSO) PRL-3 (recombinant PRL-3; [1]) [%] | % Phosphatase Activity (compared to DMSO) PRL-2 (recombinant PRL-2; [1]) [%] | % Phosphatase Activity (compared to DMSO) PRL-1 (recombinant PRL-1; [1]) [%] | % Phosphatase Activity (compared to DMSO) PRL-3 (recombinant PRL-3) [%] | % Phosphatase Activity (compared to DMSO) PRL-2 (recombinant PRL-2) [%] | % Phosphatase Activity (compared to DMSO) PRL-1 (recombinant PRL-1) [%] |
| --- | --- | --- | --- | --- | --- | --- |
| CCCCNc1ccc(C(=O)OCCN(C)C)cc1 [Tetracaine HCl] | 88 | 116 | 99 |  |  |  |
| CN(C)[C@@H]1C(O)=C(C(N)=O)C(=O)[C@@]2(O)C(O)=C3C(=O)c4c(O)cccc4[C@@](C)(O)[C@H]3C[C@@H]12 [Tetracycline HCl] | 61 | 86 | 99 |  |  |  |
| Cl.c1ccc2c(c1)CCCC2C1=NCCN1 (stereo not drawn) [Tetrahydrozoline HCl] | 58 | 109 | 111 |  |  |  |
| Cl.c1ccc(C2CN3CCSC3=N2)cc1 (stereo not drawn) [Tetramisole HCl] |  |  |  | 102 | 83 | 97 |
| O=C1CCC(N2C(=O)c3ccccc3C2=O)C(=O)N1 (stereo not drawn) [Thalidomide] | 79 | 91 | 97 |  |  |  |
| Cn1c(=O)c2[nH]cnc2n(C)c1=O [Theophylline] | 84 | 98 | 105 |  |  |  |
| c1ccc2[nH]c(-c3cscn3)nc2c1 [Thiabendazole] | 119 | 99 | 99 |  |  |  |
| CS(=O)(=O)c1ccc([C@@H](O)[C@@H](CO)NC(=O)C(Cl)Cl)cc1 [Thiamphenicol] | 81 | 125 | 103 |  |  |  |
| CSc1ccc2c(c1)N(CCC1CCCCN1C)c1ccccc1S2 (stereo not drawn) [Thioridazine HCl] |  |  |  | 97 | 104 | 95 |
| Cc1ccsc1C(=CCCN1CCC[C@@H](C(=O)O)C1)c1sccc1C [Tiagabine hydrochloride] | 83 | 97 | 100 |  |  |  |
| Cc1ccsc1C(=CCCN1CCC[C@@H](C(=O)O)C1)c1sccc1C [Tiagabine] | 78 | 104 | 100 |  |  |  |
| CCCSc1nc(N[C@@H]2C[C@H]2c2ccc(F)c(F)c2)c2nnn([C@@H]3C[C@H](OCCO)[C@@H](O)[C@H]3O)c2n1 [Ticagrelor] | 85 | 94 | 97 |  |  |  |
| O=c1sn(-c2cccc3ccccc23)c(=O)n1Cc1ccccc1 [Tideglusib] | 98 | 120 | 107 |  |  |  |
| CN(C)c1cc(NC(=O)CNC(C)(C)C)c(O)c2c1C[C@H]1C[C@H]3[C@H](N(C)C)C(O)=C(C(N)=O)C(=O)[C@@]3(O)C(O)=C1C2=O [Tigecycline] | 24 | 45 | 36 |  |  |  |
| CC[C@H]1OC(=O)C[C@@H](O)[C@H](C)[C@@H](O[C@@H]2O[C@H](C)[C@@H](O)[C@H](N(C)C)[C@H]2O)[C@@H](CCN2C[C@H](C)C[C@H](C)C2)C[C@@H](C)C(=O)/C=C/C(C)=C/[C@@H]1CO[C@@H]1O[C@H](C)[C@@H](O)[C@@H](OC)[C@H]1OC [Tilmicosin] | 71 | 88 | 89 |  |  |  |
| CC(C)(C)NC[C@H](O)COc1nsnc1N1CCOCC1 [Timolol Maleate] | 87 | 111 | 107 |  |  |  |
| CCS(=O)(=O)CCn1c([N+](=O)[O-])cnc1C [Tinidazole] | 84 | 113 | 107 |  |  |  |
| Clc1ccc(C(Cn2ccnc2)OCc2ccsc2Cl)c(Cl)c1 (stereo not drawn) [Tioconazole] |  |  |  | 84 | 92 | 83 |
| CC(S)C(=O)NCC(=O)O (stereo not drawn) [Tiopronin] | 98 | 119 | 90 |  |  |  |
| C[N+]1(C)[C@@H]2C[C@@H](OC(=O)C(O)(c3cccs3)c3cccs3)C[C@H]1[C@@H]1O[C@@H]12 [Tiotropium Bromide hydrate] | 84 | 115 | 95 |  |  |  |

| Structure (SMILES) | % Phosphatase Activity (compared to DMSO) PRL-3 (recombinant PRL-3; [1]) [%] | % Phosphatase Activity (compared to DMSO) PRL-2 (recombinant PRL-2; [1]) [%] | % Phosphatase Activity (compared to DMSO) PRL-1 (recombinant PRL-1; [1]) [%] | % Phosphatase Activity (compared to DMSO) PRL-3 (recombinant PRL-3) [%] | % Phosphatase Activity (compared to DMSO) PRL-2 (recombinant PRL-2) [%] | % Phosphatase Activity (compared to DMSO) PRL-1 (recombinant PRL-1) [%] |
| --- | --- | --- | --- | --- | --- | --- |
| O=c1oc2cc(O)ccc2s1 [Tioxolone] | 92 | 124 | 102 |  |  |  |
| O=C1NC(=O)[C@@H](c2cn3c4c(cccc24)CCC3)[C@@H]1c1c[nH]c2ccccc12 [Tivantinib (ARQ 197)] | 90 | 83 | 95 |  |  |  |
| COc1cc2nccc(Oc3ccc(NC(=O)Nc4cc(C)on4)c(Cl)c3)c2cc1OC [Tivozanib (AV-951)] | 75 | 101 | 107 |  |  |  |
| Clc1ccc2nsnc2c1NC1=NCCN1 [Tizanidine HCl] |  |  |  | 76 | 92 | 93 |
| NC[C@H]1O[C@H](O[C@H]2[C@H](O)[C@@H](O[C@H]3O[C@H](CO)[C@@H](O)[C@H](N)[C@H]3O)[C@H](N)C[C@@H]2N)[C@H](N)C[C@@H]1O [Tobramycin] | 91 | 97 | 99 |  |  |  |
| C[C@@H]1CCN(C(=O)CC#N)C[C@@H]1N(C)c1ncnc2[nH]ccc12.O=C(O)CC(O)(CC(=O)O)C(=O)O [Tofacitinib (CP-690550) Citrate] | 104 | 91 | 109 |  |  |  |
| C[C@@H]1CCN(C(=O)CC#N)C[C@@H]1N(C)c1ncnc2[nH]ccc12 [Tofacitinib (CP-690550,Tasocitinib)] | 96 | 114 | 117 |  |  |  |
| Cc1ccc(S(=O)(=O)NC(=O)NN2CCCCCC2)cc1 [Tolazamide] | 82 | 84 | 81 |  |  |  |
| c1ccc(CC2=NCCN2)cc1 [Tolazoline HCl] | 91 | 110 | 100 |  |  |  |
| CCCCNC(=O)NS(=O)(=O)c1ccc(C)cc1 [Tolbutamide] | 91 | 119 | 104 |  |  |  |
| Cc1ccc(C(=O)c2cc(O)c(O)c([N+](=O)[O-])c2)cc1 [Tolcapone] | 71 | 89 | 78 |  |  |  |
| Cc1c(Cl)cccc1Nc1ccccc1C(=O)O [Tolfenamic Acid] | 86 | 86 | 97 |  |  |  |
| Cc1ccc(C(=O)c2ccc(CC(=O)O)n2C)cc1 [Tolmetin Sodium] | 111 | 79 | 95 |  |  |  |
| Cc1cccc(N(C)C(=S)Oc2ccc3ccccc3c2)c1 [Tolnaftate] | 89 | 114 | 98 |  |  |  |
| Cc1ccc(C(=O)C(C)CN2CCCCC2)cc1.Cl (stereo not drawn) [Tolperisone HCl] | 71 | 108 | 91 |  |  |  |
| Cc1ccc(O)c([C@H](CCN(C(C)C)C(C)C)c2ccccc2)c1 [Tolterodine tartrate] | 93 | 110 | 98 |  |  |  |
| Cc1cc(-n2c(=O)[nH]c(=O)n(C)c2=O)ccc1Oc1ccc(SC(F)(F)F)cc1 [Toltrazuril] | 73 | 93 | 88 |  |  |  |
| Cc1ccccc1C(=O)Nc1ccc(C(=O)N2CCCC(O)c3cc(Cl)ccc32)c(C)c1 (stereo not drawn) [Tolvaptan] | 101 | 143 | 97 |  |  |  |
| CC1(C)O[C@@H]2[C@@H](CO[C@@]3(COS(N)(=O)=O)OC(C)(C)O[C@@H]23)O1 [Topiramate] | 99 | 122 | 118 |  |  |  |
| CC[C@@]1(O)C(=O)OCc2c1cc1n(c2=O)Cc2cc3c(CN(C)C)c(O)ccc3nc2-1 [Topotecan HCl] | 140 | 192 | 168 |  |  |  |
